Experimental data taken from the NIST ThermoML archive (doi:10.1021/je700406p).

Assay: wn = mass fraction of the nth substance listed
Conditions: Liquid, Vibrating tube method

CC(C)(N)CO [2-amino-2-methylpropan-1-ol] + O
Conditions | mass density [kg/m3]
313.13 K, 500 kPa, w1 = 0.1997 | 989.5
313.13 K, 995 kPa, w1 = 0.2821 | 988.9
313.13 K, 998 kPa, w1 = 0.4002 | 985.4
313.13 K, 999 kPa, w1 = 0.4976 | 978.1
313.13 K, 1000 kPa, w1 = 0.1997 | 989.8
313.13 K, 2000 kPa, w1 = 0.1997 | 990.1
313.13 K, 2002 kPa, w1 = 0.2821 | 989.2
313.13 K, 2006 kPa, w1 = 0.4002 | 985.8
313.13 K, 2014 kPa, w1 = 0.4976 | 978.5
313.13 K, 2993 kPa, w1 = 0.2821 | 989.6
313.13 K, 2995 kPa, w1 = 0.4002 | 986.2
313.13 K, 3000 kPa, w1 = 0.1997 | 990.5
313.13 K, 3001 kPa, w1 = 0.4976 | 978.9
313.13 K, 3995 kPa, w1 = 0.4002 | 986.6
313.13 K, 4000 kPa, w1 = 0.1997 | 990.9
313.13 K, 4001 kPa, w1 = 0.2821 | 990
313.13 K, 4001 kPa, w1 = 0.4976 | 979.3
313.13 K, 4995 kPa, w1 = 0.2821 | 990.4
313.13 K, 4999 kPa, w1 = 0.4002 | 986.9
313.13 K, 4999 kPa, w1 = 0.4976 | 979.7
313.13 K, 5000 kPa, w1 = 0.1997 | 991.2
313.13 K, 5999 kPa, w1 = 0.4002 | 987.3
313.13 K, 6000 kPa, w1 = 0.1997 | 991.6
313.13 K, 6000 kPa, w1 = 0.4976 | 980.2
313.13 K, 6005 kPa, w1 = 0.2821 | 990.8
313.13 K, 6987 kPa, w1 = 0.2821 | 991.1
313.13 K, 6994 kPa, w1 = 0.4002 | 987.7
313.13 K, 6995 kPa, w1 = 0.4976 | 980.6
313.13 K, 7000 kPa, w1 = 0.1997 | 992
313.13 K, 7986 kPa, w1 = 0.4002 | 988.1
313.13 K, 7991 kPa, w1 = 0.2821 | 991.5
313.13 K, 8000 kPa, w1 = 0.1997 | 992.4
313.13 K, 8003 kPa, w1 = 0.4976 | 980.9
313.13 K, 8992 kPa, w1 = 0.4002 | 988.5
313.13 K, 8997 kPa, w1 = 0.2821 | 991.9
313.13 K, 8997 kPa, w1 = 0.4976 | 981.4
313.13 K, 9007 kPa, w1 = 0.1997 | 992.8
313.13 K, 9992 kPa, w1 = 0.4002 | 988.9
313.13 K, 9995 kPa, w1 = 0.2821 | 992.3
313.13 K, 9999 kPa, w1 = 0.4976 | 981.8
313.13 K, 10002 kPa, w1 = 0.1997 | 993.2
313.13 K, 10989 kPa, w1 = 0.4976 | 982.1
313.13 K, 10990 kPa, w1 = 0.2821 | 992.6
313.13 K, 10993 kPa, w1 = 0.4002 | 989.2
313.13 K, 11000 kPa, w1 = 0.1997 | 993.6
313.13 K, 11991 kPa, w1 = 0.2821 | 993
313.13 K, 11992 kPa, w1 = 0.4002 | 989.6
313.13 K, 11996 kPa, w1 = 0.4976 | 982.6
313.13 K, 12000 kPa, w1 = 0.1997 | 994
313.13 K, 12982 kPa, w1 = 0.2821 | 993.4
313.13 K, 13000 kPa, w1 = 0.1997 | 994.4
313.13 K, 13002 kPa, w1 = 0.4002 | 990
313.13 K, 13006 kPa, w1 = 0.4976 | 983
313.13 K, 13991 kPa, w1 = 0.2821 | 993.8
313.13 K, 13999 kPa, w1 = 0.4002 | 990.4
313.13 K, 14000 kPa, w1 = 0.1997 | 994.7
313.13 K, 14001 kPa, w1 = 0.4976 | 983.4
313.13 K, 14997 kPa, w1 = 0.2821 | 994.2
313.13 K, 14999 kPa, w1 = 0.4002 | 990.8
313.13 K, 15001 kPa, w1 = 0.4976 | 983.8
313.13 K, 15002 kPa, w1 = 0.1997 | 995.1
313.13 K, 15990 kPa, w1 = 0.2821 | 994.5
313.13 K, 15992 kPa, w1 = 0.4002 | 991.2
313.13 K, 15992 kPa, w1 = 0.4976 | 984.2
313.13 K, 16000 kPa, w1 = 0.1997 | 995.5
313.13 K, 16989 kPa, w1 = 0.2821 | 994.9
313.13 K, 16992 kPa, w1 = 0.4976 | 984.6
313.13 K, 16994 kPa, w1 = 0.4002 | 991.5
313.13 K, 17001 kPa, w1 = 0.1997 | 995.9
313.13 K, 17985 kPa, w1 = 0.4976 | 985
313.13 K, 17988 kPa, w1 = 0.2821 | 995.3
313.13 K, 17989 kPa, w1 = 0.4002 | 991.9
313.13 K, 18002 kPa, w1 = 0.1997 | 996.3
313.13 K, 18987 kPa, w1 = 0.2821 | 995.6
313.13 K, 18990 kPa, w1 = 0.4002 | 992.3
313.13 K, 18990 kPa, w1 = 0.4976 | 985.4
313.13 K, 19000 kPa, w1 = 0.1997 | 996.7
313.13 K, 19992 kPa, w1 = 0.4002 | 992.7
313.13 K, 19992 kPa, w1 = 0.4976 | 985.8
313.13 K, 19996 kPa, w1 = 0.2821 | 996
313.13 K, 20030 kPa, w1 = 0.1997 | 997.1
313.13 K, 20495 kPa, w1 = 0.4976 | 986
313.13 K, 20691 kPa, w1 = 0.4002 | 993
313.13 K, 20955 kPa, w1 = 0.2821 | 996.4
313.13 K, 21004 kPa, w1 = 0.1997 | 997.4
313.13 K, 22004 kPa, w1 = 0.1997 | 997.8
313.13 K, 23000 kPa, w1 = 0.1997 | 998.2
313.13 K, 24004 kPa, w1 = 0.1997 | 998.5
323.08 K, 1026 kPa, w1 = 0.2821 | 982.8
323.08 K, 2026 kPa, w1 = 0.2821 | 983.2
323.08 K, 2996 kPa, w1 = 0.2821 | 983.5
323.08 K, 4009 kPa, w1 = 0.2821 | 983.9
323.08 K, 5006 kPa, w1 = 0.2821 | 984.3
323.08 K, 6002 kPa, w1 = 0.2821 | 984.7
323.08 K, 6993 kPa, w1 = 0.2821 | 985.1
323.08 K, 7994 kPa, w1 = 0.2821 | 985.5
323.08 K, 9012 kPa, w1 = 0.2821 | 985.9
323.08 K, 9998 kPa, w1 = 0.2821 | 986.3
323.08 K, 11009 kPa, w1 = 0.2821 | 986.6
323.08 K, 11995 kPa, w1 = 0.2821 | 987
323.08 K, 12991 kPa, w1 = 0.2821 | 987.4
323.08 K, 14001 kPa, w1 = 0.2821 | 987.8
323.08 K, 14989 kPa, w1 = 0.2821 | 988.2
323.08 K, 15999 kPa, w1 = 0.2821 | 988.5
323.08 K, 16987 kPa, w1 = 0.2821 | 988.9
323.08 K, 17980 kPa, w1 = 0.2821 | 989.3
323.08 K, 18996 kPa, w1 = 0.2821 | 989.7
323.08 K, 19986 kPa, w1 = 0.2821 | 990.1
323.08 K, 20987 kPa, w1 = 0.2821 | 990.4
323.09 K, 1002 kPa, w1 = 0.4976 | 970.1
323.09 K, 1995 kPa, w1 = 0.4976 | 970.5
323.09 K, 3001 kPa, w1 = 0.4976 | 971
323.09 K, 4009 kPa, w1 = 0.4976 | 971.4
323.09 K, 5001 kPa, w1 = 0.4976 | 971.8
323.09 K, 5995 kPa, w1 = 0.4976 | 972.2
323.09 K, 7011 kPa, w1 = 0.4976 | 972.6
323.09 K, 7990 kPa, w1 = 0.4976 | 973
323.09 K, 9002 kPa, w1 = 0.4976 | 973.5
323.09 K, 9974 kPa, w1 = 0.4976 | 973.9
323.09 K, 10992 kPa, w1 = 0.4976 | 974.3
323.09 K, 11993 kPa, w1 = 0.4976 | 974.7
323.09 K, 12991 kPa, w1 = 0.4976 | 975.1
323.09 K, 13986 kPa, w1 = 0.4976 | 975.6
323.09 K, 14991 kPa, w1 = 0.4976 | 976
323.09 K, 15999 kPa, w1 = 0.4976 | 976.4
323.09 K, 16994 kPa, w1 = 0.4976 | 976.8
323.09 K, 18003 kPa, w1 = 0.4976 | 977.2
323.09 K, 18986 kPa, w1 = 0.4976 | 977.6
